Source: patent US4374149A, “α-{[(Arylalkyl)amino]alkyl}-4-hydroxy-3-(lower-alkylsul finyl)benzenemethanols” (Sterling Drug Inc., priority 1978, dated 1983)
Several values for one entry are separate records, joined by “and”; a condition that tells them apart may be missing. Identical values can stand only once. Counter-ions that a name gives are not always drawn.

Legend:
systolic blood pressure = test: Antihypertensive activity, reduction in systolic blood pressure, single oral medication, unanesthetized spontaneous hypertensive rat; assay type: in vivo; conditions: P.O., single dose, unanesthetized SH rat
Protocol: Antihypertensive activity was determined on the basis of the observed reduction in systolic blood pressure measured according to the method of H. Kersten et al., J. Lab. and Clin. Med. 32, 1090 (1947) following a single oral medication in the unanesthetized spontaneous hypertensive rat described by Okamato et al., Japan Circulation J. 27, 282 (1963).
^a AHD40 = single oral dose required to induce a 40 mm. average

blood pressure = test: Antihypertensive activity, sustained lowering of blood pressure, repeated oral medication, unanesthetized trained renal hypertensive dog; assay type: in vivo; conditions: tid.
Description: Antihypertensive activity was also judged on the basis of sustained reduction of blood pressure observed in the unanesthetized trained renal hypertensive dog following repeated oral medication according to the procedure described by Lape et al., Arch.
^b MED10 = minimum repeated oral daily dose required to effect a

β-adrenergic = β-adrenergic blocking activity, inhibition of isoproterenol-elicited heart rate increase in pentobarbitalized dog; assay type: in vivo; conditions: i.v., pentobarbitalized dog
Protocol: The β-adrenergic blocking activity was determined in the pentobarbitalized dog as judged by the ability of the test compound to inhibit the elevation in heart rate elicited by a 0.5 mcg./kg. i.v. injection of isoproterenol.
^e AED50 = approximate intravenous dose required to cause 50%

[1] = system: histamine-induced bronchoconstriction; test: β-adrenergic stimulant activity, block of histamine-induced bronchoconstriction in the dog; assay type: in vivo
hind limb vasculature = test: Vasodilator activity, perfusion pressure in hind limb vasculature of anesthetized dog; assay type: in vivo
Description: (§1) Vasodilator activity was judged on the basis of observed reduction in perfusion pressure in the hind limb vasculature of the anesthetized dog determined according to the procedure described by Jandhyala et al., European J. Pharm. 17, 357 (1972), and also on the basis of percent reduction in perfusion pressure as measured in the isolated rabbit ear artery according to the method described by De LaLande et al., Aust. J. Exp. Biol. Med. Sci. 43, 639 (1965).
^c AED50 = approximate intraarterial dose required to cause a 50

[2] = system: isolated rabbit ear artery; test: Vasodilator activity, perfusion pressure in isolated rabbit ear artery
Description: as §1
^d Vasodilation is expressed as the percentage reduction in perfusion

[3] = Local anesthetic activity (method of Bulbring and Wadja); assay type: in vivo; conditions: compared with procaine
Protocol: D. Following a procedure similar to that described in Example 2G but using 2.5 g. (0.0049 mole) of dextrorotatory 4-hydroxy-α-<{[3-(4-methoxyphenyl)-1-methylpropyl]amino}methyl>- 3-(methylthio)benzenemethanol acetate salt (m.p. 124°-126° C., [α]D^25 =+7.7°) and 375 mg. of commercial 40% peracetic acid there was obtained 2.0 g. of 4-hydroxy-α-<{[3-(4-methoxyphenyl)-1-methylpropyl]amino}methyl>-3-(methylsulfinyl)benzenemethanol acetate salt as an amorphous yellow powder [α]D^25 =+4.2° containing a mixture of 4 diastereomeric sulfoxides. […] Exp. Therap. 85, 78 (1945).

7-day oral LD50 in rats = assay type: in vivo
[4] = system: cardiac contractile force; test: Cardiotonic test procedure II, intact anesthetized dog; assay type: in vivo, mongrel dogs; conditions: i.v. infusion 10 mcg./kg./min. over 3 hrs.
Protocol: The efficacy of this compound was judged, in vitro, on the basis of percent increase in contractile force in isolated cat atria and papillary muscle and, in vitro, on the basis of percent increase in cardiac contractile force in the intact anesthetized dog. The in vivo test procedure used is described as follows: Mongrel dogs of both sexes and varying in weight from 9 to 15 kg. were anesthetized with 30 mg./kg. pentobarbital sodium administered intravenously. The trachea was exposed and cannulated. The tracheal cannula was then attached to a Harvard respiratory pump using room air. The right femoral artery and vein were cannulated. […] The venous cannula was used for the intravenous administration of drugs. Pin electrodes were attached to the right forelimb and left hindlimb. The electrodes were then connected to a Grass polygraph for the continuous recording of the standard limb lead II electrocardiogram. A ventro-dorsal incision at the third inter-costal space was made, the ribs laterally retracted and the pericardium slit open to expose the myocardium. The base of the aorta was dissected and a flow probe was fitted around it. The flow probe was attached to a square wave electromagnetic flowmeter (Carolina Medical Electronics). The flowmeter was then connected to a Grass polygraph for the continuous recording of aortic blood flow. This flow was used as an index of cardiac output (actual cardiac output is aortic blood flow+coronary blood flow). Cardiac contractile force was measured by suturing a Walton-Brodie strain gauge to the wall of the right ventricle. At the end of the surgical procedure, the animal was left to rest and equilibrate for one hour with continuous recording of blood pressure, EKG, cardiac contractile force and aortic blood flow. After the equilibration period, the vehicle or the drug dissolved in the vehicle was administered by intravenous infusion (i.v. inf.), intravenous bolus (i.v. bol.) or intraduodenally (i.d.) and the response of all the parameters measured to drug administration was recorded continuously for different periods of times depending on the route of drug administration. When the route of administration was i.v. inf., the drug was administered until a peak effect was reached and infusion was then maintained for ten minutes. The above-described test systems were standardized using dopamine.

[5] = system: Ouabain-induced arrhythmia; test: Conversion of ouabain-induced arrhythmia in dogs; assay type: in vivo, mongrel dogs; parameters: key: active (A); inactive (I); conditions: 5 × 10^-6 M/kg.
Protocol: (§2) The test procedures were carried out as follows.
Na-pentobarbital supplements were given i.v. as needed.
Both parameters were printed out on a Grass polygraph.

isolated cat atria = test: Cardiotonic test procedure I, isolated cat atria; conditions: for Increase in right atrial force / Increase in right atrial rate: in vitro
Protocol: The efficacy of this compound was judged, in vitro, on the basis of percent increase in contractile force in isolated cat atria and papillary muscle and, in vitro, on the basis of percent increase in cardiac contractile force in the intact anesthetized dog. Male cats weighing from 0.8 to 1.5 kg. were anesthetized with α-chloralose (80 mg./kg. i.p.). The chest was opened, the heart excised and the two atria dissected. A silk suture was tied to each of two opposite sides of the right atrium. One side of the atrium was tied to a glass rod and then mounted in a 50 ml. organ bath filled with Tyrode's solution. […] The transducer was then connected to a Grass polygraph and the force and rate of atrial contraction was recorded continuously. The left atrium was treated similarly using silver wire instead of silk sutures. The silver wire also served as a stimulating electrode. Both atria were mounted in the same bath. The right atrium was beating spontaneously due to the presence of the sinoatrial node, while the left atrium was stimulated electrically at a rate of 3 beats/sec. by suprathreshold rectangular pulses of 5 millisecond duration. The Tyrode's solution bathing the atria was of the following composition (in mM): NaCl 136.87, KCl 5.36, NaH2 PO4 0.41, CaCl2 1.80, MgCl2 6H2 O 1.05, NaHCO3 11.90, glucose 5.55 and EDTA 0.04. […] The preparation was left to equilibrate for one hour before any drug was added. The bathing fluid was changed 3 to 4 times during the equilibration time. At the end of equilibration period, the drug dissolved in a vehicle or the vehicle alone was added to the tissue bath and the full response recorded. The vehicle used was Tyrode' s solution to which, if required, sufficient acid was added to cause solution of the drug. […] Generally, a dose response study of at least 3 doses was done in the same preparation.

Ba++-induced arrhythmia = test: Conversion of Ba++-induced arrhythmia in rabbits; assay type: in vivo; parameters: key: active (A); inactive (I); conditions: 1 × 10^-5 M/kg.
Protocol: as §2
Adult rabbits or either sex weighing between 1.7 and 2.3 kg. were anesthetized with 30 to 35 mg./kg. Na-pentobarbital i.v. via a marginal ear vein. Monoplar ECG pin electrodes were inserted for a lead II display on a Model 5 Grass Polygraph using standard electrocardiographic procedures. A 23 ga. hypodermic needle, attached via a polyethylene catheter to a 10 cc. syringe, was inserted into the same vein as was used for anesthesia. A BaCl2.2H2 O solution in saline was then infused at a constant volume of 0.2 cc/min. from a Harvard Apparatus Model 600 infusion pump. This infusion was not stopped until termination of the experiment. In some studies barium chloride in distilled water was used without detectable differences. The standard rate of BaCl2.2H2 O infusion was established at 0.3 mg./kg./min. (1.2×10^-6 M/kg./min.), and the concentration was adjusted appropriately in each case to accommodate the weight of the rabbit.
When the desired arrhythmia was established, the test compound was introduced as a water or saline solution into the marginal ear vein of the unused ear. The volume used was between 0.5 and 2.0 cc./kg. and was injected as a bolus over approximately 30 seconds. Deviations from standard vehicle, rate of injection and total volume administered were at the discretion of the operator. The standard initial dose of an unknown compound on the first rabbit was 5×10^-5 M/kg. In general, two to three rabbits were used to determine anti-arrhythmic activity and the dose range of activity; multiple doses were administered. Once activity and dose was indicated, two additional rabbits were employed to confirm anti-arrhythmic activity against a multifocal tachycardia.

papillary muscle = test: Cardiotonic test procedure IB, isolated cat papillary muscle; conditions: in vitro
Protocol: The efficacy of this compound was judged, in vitro, on the basis of percent increase in contractile force in isolated cat atria and papillary muscle and, in vitro, on the basis of percent increase in cardiac contractile force in the intact anesthetized dog. Male cats 0.8 to 1.5 kg. were anethetized with α-chloralose (80 mg./kg. i.p.). The chest was opened and the heart excised. The heart was dipped and shaken in Tyrode's solution for the removal of blood from the cavities. The right ventricle was then slit open and the small and thin (about 1 mm. in diameter and 4 to 7 mm. in length) papillary muscles were dissected out. A silver wire was attached to each of the two ends of the papillary muscle. The ventricular end was attached to a platinum electrode and mounted in a tissue bath containing Tyrode's solution described above. The silver wire on the valvular end of the muscle was attached to a force displacement transducer for the measurement of the force and rate of muscle contraction. The muscle was stimulated at a rate of 3 beats/sec. by suprathreshold rectangular pulses of 5 millisecond duration. The rest of the procedure was continued as described above.

SMILES: COc1ccc(CC(C)NCC(O)c2ccc(O)c([S+](C)[O-])c2)cc1 (stereo not drawn) [Example 1I, 4-hydroxy-α-<{[2-(4-methoxyphenyl)-1-methylethyl]amino}methyl>-3-(methylsulfinyl)benzenemethanol hydrochloride]
- Antihypertensive activity SH Rat AHD40 (single oral dose required to induce a 40 mm. average reduction in systolic blood pressure) (systolic blood pressure): 2.0 mg/kg
- Renal Hypertensive Dog MED10 (minimum repeated oral daily dose for sustained lowering of blood pressure of 10% or greater) (blood pressure): 1.25 mg/kg
- Dog β-blockade AED50 (approximate intravenous dose for 50% inhibition of isoproterenol-elicited heart rate increase) (β-adrenergic): 0.04 mg/kg
- β-adrenergic stimulant activity [1]: ability to block histamine-induced bronchoconstriction in the dog
- ED50 (hind limb vasculature; Canis lupus familiaris, read-out: Vasodilator activity Dog-Leg Perfusion AED50 (approximate intraarterial dose for 50 reduction in perfusion pressure)): 0.25 mg/kg
- Rabbit Ear Artery vasodilation (percentage reduction in perfusion pressure from control level) ([2]; 6.25 × 10^-5 M, 62.5 µM): 53%

SMILES: COc1ccc(CCC(C)NCC(O)c2ccc(O)c([S+](C)[O-])c2)cc1 (stereo not drawn) [Example 5D, 4-hydroxy-α-<{[3-(4-methoxyphenyl)-1-methylpropyl]amino}methyl>-3-(methylsulfinyl)benzenemethanol acetate salt]
- Antihypertensive activity SH Rat AHD40 (single oral dose required to induce a 40 mm. average reduction in systolic blood pressure) (systolic blood pressure; acetate salt): 3.0 mg/kg
- Renal Hypertensive Dog MED10 (minimum repeated oral daily dose for sustained lowering of blood pressure of 10% or greater) (blood pressure): 0.0316 mg/kg
- Dog β-blockade AED50 (approximate intravenous dose for 50% inhibition of isoproterenol-elicited heart rate increase) (β-adrenergic; acetate salt): 0.125 mg/kg
- Vasodilator activity Dog-Leg Perfusion AED50 (approximate intraarterial dose for 50 reduction in perfusion pressure) (hind limb vasculature; intraarterial, anesthetized dog hind limb, acetate salt): 0.5 mg/kg
- Local anesthetic activity [3]: equi-active with procaine as a local anesthetic
- Rabbit Ear Artery vasodilation (percentage reduction in perfusion pressure from control level) ([2]; 5 × 10^-5 M, 50 µM, acetate salt): 49%

SMILES: COc1ccc(CCC(C)NCC(O)c2ccc(O)c([S+](C)[O-])c2)cc1 (stereo not drawn) [Example 5E, 4-hydroxy-α-<{[3-(4-methoxyphenyl)-1-methylpropyl]amino}methyl>-3-(methylsulfinyl)benzenemethanol acetate salt]
- Body weight and gross tissue changes (7-day oral LD50 in rats; animals sacrificed 7 days post-medication): No changes in body weight and no gross tissue changes
- 7-day oral LD50 (7-day oral LD50 in rats; oral, rats, two separate batches, acetate salt, 10080 min): 1940 mg/kg
- LD50 at 168 h (7-day oral LD50 in rats; rat, in vivo, po, rats, two separate batches): 1850 mg/kg

SMILES: COc1ccc(CCC(C)NCC(O)c2ccc(O)c([S+](C)[O-])c2)cc1 (stereo not drawn) [Example 5H, 4-hydroxy-α-<{[3-(4-methoxyphenyl)-1-methylpropyl]amino}methyl>-3-(methylsulfinyl)benzenemethanol hydrochloride]
- Change in heart rate ([4]; 2 of 3 dogs): no significant change in heart rate
- Maximum increase in cardiac contractile force ([4]; 2 of 3 dogs, I, hydrochloride): 25% and 42%
- Decrease in contractile force ([4]; remaining dog): 30%
- Decrease in heart rate ([4]; remaining dog): 33%
- Conversion of Ouabain-induced Arrhythmia [5]: A
- Increase in right atrial force (isolated cat atria; 1 mg./ml.): 52%
- Increase in right atrial rate (isolated cat atria; 1 mg./ml.): 62%
- Increase in right atrial force (isolated cat atria; 10 mcg./ml.): 46%
- Increase in right atrial rate (isolated cat atria; 10 mcg./ml.): 53%
- Cardiotonic activity (in words) (isolated cat atria; one or more of the cardiotonic test procedures): useful cardiotonic activity
- Conversion of Ba++-induced Arrhythmia (Ba++-induced arrhythmia): A
- Decrease in papillary muscle force (papillary muscle; 1 mg./ml.): 14%
- Decrease in papillary muscle force (papillary muscle; 10 mcg./ml.): 12%
- Rabbit Ear Artery vasodilation (percentage reduction in perfusion pressure from control level) ([2]; 1 × 10^-4 M, 100 µM, hydrochloride): 64%
